These results are taken from PubChem BioAssay AID248 (DTP/NCI, 2004).

The test system of the test is L1210 leukemia ip in BDF1 mice, survival T/C. Put plainly: NCI In Vivo Anticancer Drug Screen. Data for tumor model L1210 Leukemia (intraperitoneal) in B6D2F1 (BDF1) mice. Conditions: endpoint: mean survival time, higher = longer survival. A digest of the protocol:
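Tumor was transplanted into mice, which were then dosed with test compound or vehicle alone. Survival was recorded for each group, and the treated figure was expressed relative to the control figure.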

Where [1] appears, read: dose: 100.0 mg/kg/injection, schedule: Q01DX009 (ip), vehicle: saline.
Where [2] appears, read: dose: 100.0 mg/kg/injection, schedule: Q04DX003 (ip), vehicle: saline.
Setting [3] is: dose: 200.0 mg/kg/injection, schedule: Q04DX003 (ip), vehicle: saline.
The mark [4] stands for this setting: dose: 100.0 mg/kg/injection, schedule: Q04DX003 (ip), vehicle: saline with Tween-80.
[5] abbreviates: dose: 200.0 mg/kg/injection, schedule: Q04DX003 (ip), vehicle: saline with Tween-80.
[6] abbreviates: dose: 400.0 mg/kg/injection, schedule: Q04DX003 (ip), vehicle: saline with Tween-80.
The mark [7] stands for this setting: dose: 100.0 mg/kg/injection, schedule: Q01DX009 (ip), vehicle: Klucel (hydroxypropylcellulose) (HPC).
[8] abbreviates: dose: 200.0 mg/kg/injection, schedule: Q01DX009 (ip), vehicle: Klucel (hydroxypropylcellulose) (HPC).
Where [9] appears, read: dose: 400.0 mg/kg/injection, schedule: Q01DX009 (ip), vehicle: Klucel (hydroxypropylcellulose) (HPC).
The mark [10] stands for this setting: dose: 400.0 mg/kg/injection, schedule: Q04DX003 (ip), vehicle: saline.
Setting [11] is: dose: 200.0 mg/kg/injection, schedule: Q01DX009 (ip), vehicle: saline.
Where [12] appears, read: dose: 400.0 mg/kg/injection, schedule: Q01DX009 (ip), vehicle: saline.
The mark [13] stands for this setting: dose: 100.0 mg/kg/injection, schedule: Q01DX001 (ip), vehicle: carboxymethylcellulose (CMC).
Setting [14] is: dose: 200.0 mg/kg/injection, schedule: Q01DX001 (ip), vehicle: carboxymethylcellulose (CMC).
The mark [15] stands for this setting: dose: 400.0 mg/kg/injection, schedule: Q01DX001 (ip), vehicle: carboxymethylcellulose (CMC).

Inconclusive results and toxic doses are left out.

As to `CCOC(=O)C(c1ccccc1)(c1ccccc1)c1ccccc1`, the T/C is 90 % of control (dose: 6.25 mg/kg/injection, schedule: Q01DX009 (ip), vehicle: Klucel (hydroxypropylcellulose) (HPC)); 92 % of control (dose: 12.5 mg/kg/injection, schedule: Q01DX009 (ip), vehicle: Klucel (hydroxypropylcellulose) (HPC)); 95 % of control (dose: 25.0 mg/kg/injection, schedule: Q01DX009 (ip), vehicle: Klucel (hydroxypropylcellulose) (HPC)).
`COc1ccc(CC[N+]2=Cc3cc(OC)c(OC)cc3CC2)cc1OC`: the T/C reads like this: (dose: 50.0 mg/kg/injection, schedule: Q01DX009 (ip), vehicle: saline) 97 % of control; under setting [1], 105 % of control; under setting [2], 97 % of control; under setting [3], 101 % of control.
As for `c1ccc2cc3nc4c(nc3cc2c1)[nH]c1ccccc14`, the T/C was 87 % of control (dose: 100.0 mg/kg/injection, schedule: Q01DX001 (ip), vehicle: other); 95 % of control (dose: 200.0 mg/kg/injection, schedule: Q01DX001 (ip), vehicle: other); 95 % of control (dose: 400.0 mg/kg/injection, schedule: Q01DX001 (ip), vehicle: other).
For `Clc1ccc2nc(C(Cl)(Cl)Cl)[nH]c2c1`, the T/C under setting [4] was 98 % of control, the T/C under setting [5] was 104 % of control and the T/C under setting [6] is 95 % of control.
Turning to `CC(C)(CSCCSCC(C)(C)C(=O)O)C(=O)O`, the T/C is 94 % of control under setting [7], 94 % of control under setting [8] and 91 % of control under setting [9].
Turning to `C1CCN(/N=N/c2nn[nH]n2)CC1`, the T/C is 94 % of control under setting [4], 91 % of control under setting [5] and 94 % of control under setting [6].
`O=NN(CCCl)C(=O)NC1CCCCCCCCCCC1`: the T/C (dose: 2.5 mg/kg/injection, schedule: Q01DX001 (ip), vehicle: carboxymethylcellulose (CMC)) is 114 % of control; the T/C (dose: 5.0 mg/kg/injection, schedule: Q01DX001 (ip), vehicle: carboxymethylcellulose (CMC)) is 120 % of control; the T/C (dose: 8.0 mg/kg/injection, schedule: Q01DX001 (ip), vehicle: carboxymethylcellulose (CMC)) was 123 % of control; the T/C (dose: 12.0 mg/kg/injection, schedule: Q01DX001 (ip), vehicle: carboxymethylcellulose (CMC)) is 121 % of control; the T/C (dose: 187.0 mg/kg/injection, schedule: Q01DX001 (ip), vehicle: carboxymethylcellulose (CMC)) is 166 % of control; the T/C (dose: 250.0 mg/kg/injection, schedule: Q01DX001 (ip), vehicle: carboxymethylcellulose (CMC)) was 153 % of control. For the same molecule, the T/C was 160 % of control (dose: 375.0 mg/kg/injection, schedule: Q01DX001 (ip), vehicle: carboxymethylcellulose (CMC)); 174 % of control (dose: 500.0 mg/kg/injection, schedule: Q01DX001 (ip), vehicle: carboxymethylcellulose (CMC)); 172 % of control (dose: 555.0 mg/kg/injection, schedule: Q01DX001 (ip), vehicle: other); 155 % of control (dose: 596.0 mg/kg/injection, schedule: Q01DX001 (ip), vehicle: other); 233 % of control (dose: 750.0 mg/kg/injection, schedule: Q01DX001 (ip), vehicle: carboxymethylcellulose (CMC)); 221 % of control (dose: 838.0 mg/kg/injection, schedule: Q01DX001 (ip), vehicle: other). For the same molecule, the T/C (dose: 1000.0 mg/kg/injection, schedule: Q01DX001 (ip), vehicle: carboxymethylcellulose (CMC)) was 247 % of control; the T/C (dose: 1192.0 mg/kg/injection, schedule: Q01DX001 (ip), vehicle: other) was 185 % of control; the T/C (dose: 1250.0 mg/kg/injection, schedule: Q01DX001 (ip), vehicle: other) is 274 % of control; the T/C (dose: 1500.0 mg/kg/injection, schedule: Q01DX001 (ip), vehicle: other) is 167 % of control; the T/C (dose: 1875.0 mg/kg/injection, schedule: Q01DX001 (ip), vehicle: other) was 261 % of control; the T/C (dose: 2000.0 mg/kg/injection, schedule: Q01DX001 (ip), vehicle: other) is 91 % of control. The T/C (dose: 2384.0 mg/kg/injection, schedule: Q01DX001 (ip), vehicle: other) is 178 % of control.
As for `O=C1C=C(Nc2cccc(O)c2)c2ccccc2C1=O`, the T/C reads like this: under setting [2], 94 % of control; under setting [3], 97 % of control; under setting [10], 89 % of control.
In the same order, the values of `CCC(CO)NC(=O)C(O)C(O)C(O)C(O)CO` (stereo unspecified) are 94 % of control, 97 % of control and 94 % of control.
As for `Nc1ccc(OCC(=O)N2CCOCC2)c(Cl)c1`, the T/C is 100 % of control under setting [1]; 110 % of control under setting [2]; 102 % of control under setting [11]; 98 % of control under setting [3]; 96 % of control under setting [12]; 101 % of control under setting [10].
With `O=c1[nH]c2cc(F)ccc2o1`, the T/C is, setting by setting: under setting [7], 103 % of control; (dose: 100.0 mg/kg/injection, schedule: Q04DX003 (ip), vehicle: Klucel (hydroxypropylcellulose) (HPC)) 104 % of control; under setting [8], 101 % of control; (dose: 200.0 mg/kg/injection, schedule: Q04DX003 (ip), vehicle: Klucel (hydroxypropylcellulose) (HPC)) 103 % of control; under setting [9], 111 % of control; (dose: 400.0 mg/kg/injection, schedule: Q04DX003 (ip), vehicle: Klucel (hydroxypropylcellulose) (HPC)) 111 % of control.
With `O=C(/C(=C/c1ccc2c(c1)OCO2)c1ccccc1)c1ccc(OCCN2CCCC2)cc1`, the T/C runs as follows: under setting [13], 95 % of control; under setting [14], 106 % of control; under setting [15], 95 % of control.
For `Cc1ccc(NC(=O)NC2CCCCC2)cc1`, the T/C is, setting by setting: (dose: 100.0 mg/kg/injection, schedule: Q01DX009 (ip), vehicle: saline with Tween-80) 94 % of control; (dose: 200.0 mg/kg/injection, schedule: Q01DX009 (ip), vehicle: saline with Tween-80) 97 % of control; (dose: 400.0 mg/kg/injection, schedule: Q01DX009 (ip), vehicle: saline with Tween-80) 92 % of control.
In the case of `Cc1cccn1C(C)c1ccccc1` (stereo unspecified), the T/C under setting [4] was 97 % of control, the T/C under setting [5] was 94 % of control and the T/C under setting [6] is 97 % of control.
Take `CC(CCOCC1CO1)OCC1CO1` (stereo unspecified): the T/C under setting [1] was 101 % of control; the T/C under setting [2] is 106 % of control; the T/C under setting [11] is 113 % of control; the T/C under setting [3] is 105 % of control; the T/C under setting [12] was 120 % of control; the T/C under setting [10] was 120 % of control.
Regarding `CC(=O)NNCc1ccccc1`, the T/C (dose: 100.0 mg/kg/injection, schedule: Q01DX001 (ip), vehicle: Klucel (hydroxypropylcellulose) (HPC)) is 103 % of control; the T/C (dose: 200.0 mg/kg/injection, schedule: Q01DX001 (ip), vehicle: Klucel (hydroxypropylcellulose) (HPC)) was 103 % of control; the T/C (dose: 400.0 mg/kg/injection, schedule: Q01DX001 (ip), vehicle: Klucel (hydroxypropylcellulose) (HPC)) is 97 % of control.
For `CCCCCOB(OCCCCC)OCCCCC`, the T/C reads like this: (dose: 50.0 mg/kg/injection, schedule: Q01DX001 (ip), vehicle: carboxymethylcellulose (CMC)) 93 % of control; under setting [13], 95 % of control; under setting [14], 93 % of control; under setting [15], 98 % of control.
With `COc1cccc(/C=C(/SC)S(C)=O)c1OC` (stereo unspecified), the T/C was 105 % of control under setting [2], 106 % of control under setting [3] and 102 % of control under setting [10].
